# From US20230123334A1, “AMINO LIPID COMPOUND, PREPARATION METHOD THEREFOR, AND APPLICATION THEREOF” (SHENZHEN SHENXIN BIOTECHNOLOGY CO., LTD., priority 2020, published 2023)
# What was measured:
# HEK293 cells [1] = assay: Preliminary screening as DNA vectors, GFP transfection of HEK293 cells; type: cell-based; conditions: HEK293 cells; lipid/DOPE liposome with 75 ng plasmid DNA (psin-EGFP-IRES-Puro); number of cells expressing GFP divided by total number of nuclei (Hoechst)
# Outline: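 Lipid + DOPE liposomes (NaOAc, pH 5.6) complexed w/ 75 ng psin-EGFP-IRES-Puro, 30 min RT; added to 3-5×10^4 HEK293/well, 37° C. Hoechst 0.2 μg/mL at 20-24 h, imaged after further 20-24 h. Efficiency = GFP+ cells / total nuclei.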
# HEK293 cells [2] = assay: Preliminary screening as mRNA vectors, EGFP mRNA transfection of HEK293 cells; type: cell-based; conditions: HEK293 cells, 96-well plates, EGFP mRNA 50 ng per well; percentage of GFP fluorescent cells relative to total number of cells (Hoechst)
# Outline: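 Each well of HEK293 cells received 50 ng of EGFP mRNA. Efficiency was expressed as percent GFP-expressing cells over Hoechst-defined total cell number.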
Structure (SMILES),Absolute DNA transfection efficiency in HEK293 cells (HEK293 cells [1]),Absolute mRNA transfection efficiency in HEK293 cells (HEK293 cells [2])
CCCCCCCCCCCCCCCCSc1nc(NCCN(C)C)nc(SCCCCCCCCCCCCCCCC)n1 [Compound S16S16D1],0.6%,0.4%
CCCCCCCCCCCCCCCCSc1nc(NCCN2CCOCC2)nc(SCCCCCCCCCCCCCCCC)n1 [Compound S16S16D2],1.1%,0.2%
CCCCCCCCCCCCCCCCSc1nc(NCCN2CCCC2)nc(SCCCCCCCCCCCCCCCC)n1 [Compound S16S16D3],0.9%,0.8%
CCCCCCCCCCCCCCCCSc1nc(NCCN2CCCCC2)nc(SCCCCCCCCCCCCCCCC)n1 [Compound S16S16D4],1.2%,2.2%
CCCCCCCCCCCCCCCCSc1nc(NCCN2CCN(C)CC2)nc(SCCCCCCCCCCCCCCCC)n1 [Compound S16S16D5],0.0%,0.7%
CCCCCCCCCCCCCCCCSc1nc(NCCCN(C)C)nc(SCCCCCCCCCCCCCCCC)n1 [Compound S16S16D6],0.5%,0.5%
CCCCCCCCCCCCCCCCSc1nc(NCCN(CC)CC)nc(SCCCCCCCCCCCCCCCC)n1 [Compound S16S16D7],0.5%,0.0%
CCCCCCCCCCCCCCCCSc1nc(NCCCN2CCOCC2)nc(SCCCCCCCCCCCCCCCC)n1 [Compound S16S16D8],0.0%,1.7%
CCCCCCCCCCCCCCCCSc1nc(NCCCN2CCN(C)CC2)nc(SCCCCCCCCCCCCCCCC)n1 [Compound S16S16D9],0.5%,0.2%
CCCCCCCCCCCCCCCCSc1nc(NCC2CCN(C)CC2)nc(SCCCCCCCCCCCCCCCC)n1 [Compound S16S16D10],0.1%,2.7%
CCCCCCCCCCCCCCCCCCSc1nc(NCCN(C)C)nc(SCCCCCCCCCCCCCCCC)n1 [Compound S16S18D1],1.2%,2.1%
CCCCCCCCCCCCCCCCCCSc1nc(NCCN2CCOCC2)nc(SCCCCCCCCCCCCCCCC)n1 [Compound S16S18D2],0.0%,0.0%
CCCCCCCCCCCCCCCCCCSc1nc(NCCN2CCCC2)nc(SCCCCCCCCCCCCCCCC)n1 [Compound S16S18D3],1.9%,1.8%
CCCCCCCCCCCCCCCCCCSc1nc(NCCN2CCCCC2)nc(SCCCCCCCCCCCCCCCC)n1 [Compound S16S18D4],0.3%,0.3%
CCCCCCCCCCCCCCCCCCSc1nc(NCCN2CCN(C)CC2)nc(SCCCCCCCCCCCCCCCC)n1 [Compound S16S18D5],1.7%,0.3%
CCCCCCCCCCCCCCCCCCSc1nc(NCCCN(C)C)nc(SCCCCCCCCCCCCCCCC)n1 [Compound S16S18D6],0.2%,1.8%
CCCCCCCCCCCCCCCCCCSc1nc(NCCN(CC)CC)nc(SCCCCCCCCCCCCCCCC)n1 [Compound S16S18D7],1.0%,1.8%
CCCCCCCCCCCCCCCCCCSc1nc(NCCCN2CCOCC2)nc(SCCCCCCCCCCCCCCCC)n1 [Compound S16S18D8],0.3%,1.9%
CCCCCCCCCCCCCCCCCCSc1nc(NCCCN2CCN(C)CC2)nc(SCCCCCCCCCCCCCCCC)n1 [Compound S16S18D9],0.4%,0.5%
CCCCCCCCCCCCCCCCCCSc1nc(NCC2CCN(C)CC2)nc(SCCCCCCCCCCCCCCCC)n1 [Compound S16S18D10],0.8%,3.0%

Structure (SMILES),Absolute DNA transfection efficiency in HEK293 cells (HEK293 cells [1]),Absolute mRNA transfection efficiency in HEK293 cells (HEK293 cells [2])
CCCCCCCCCCCCCCCCCCSc1nc(NCCN(C)C)nc(SCCCCCCCCCCCCCCCCCC)n1 [Compound S18S18D1],0.0%,0.0%
CCCCCCCCCCCCCCCCCCSc1nc(NCCN2CCOCC2)nc(SCCCCCCCCCCCCCCCCCC)n1 [Compound S18S18D2],0.0%,0.1%
CCCCCCCCCCCCCCCCCCSc1nc(NCCN2CCCC2)nc(SCCCCCCCCCCCCCCCCCC)n1 [Compound S18S18D3],0.1%,0.1%
CCCCCCCCCCCCCCCCCCSc1nc(NCCN2CCCCC2)nc(SCCCCCCCCCCCCCCCCCC)n1 [Compound S18S18D4],0.1%,0.1%
CCCCCCCCCCCCCCCCCCSc1nc(NCCN2CCN(C)CC2)nc(SCCCCCCCCCCCCCCCCCC)n1 [Compound S18S18D5],0.1%,0.1%
CCCCCCCCCCCCCCCCCCSc1nc(NCCCN(C)C)nc(SCCCCCCCCCCCCCCCCCC)n1 [Compound S18S18D6],0.2%,0.5%
CCCCCCCCCCCCCCCCCCSc1nc(NCCN(CC)CC)nc(SCCCCCCCCCCCCCCCCCC)n1 [Compound S18S18D7],0.2%,0.0%
CCCCCCCCCCCCCCCCCCSc1nc(NCCCN2CCOCC2)nc(SCCCCCCCCCCCCCCCCCC)n1 [Compound S18S18D8],0.0%,0.0%
CCCCCCCCCCCCCCCCCCSc1nc(NCCCN2CCN(C)CC2)nc(SCCCCCCCCCCCCCCCCCC)n1 [Compound S18S18D9],0.9%,0.1%
CCCCCCCCCCCCCCCCCCSc1nc(NCC2CCN(C)CC2)nc(SCCCCCCCCCCCCCCCCCC)n1 [Compound S18S18D10],0.0%,0.0%
CCCCCCCCCCCCN(CCCCCCCCCCCC)c1nc(NCCCCCC)nc(NCCN(C)C)n1 [N6^2N12D1],0.6%,0.0%
CCCCCCCCCCCCN(CCCCCCCCCCCC)c1nc(NCCCCCC)nc(NCCN2CCOCC2)n1 [N6^2N12D2],0.2%,0.0%
CCCCCCCCCCCCN(CCCCCCCCCCCC)c1nc(NCCCCCC)nc(NCCN2CCCC2)n1 [N6^2N12D3],0.4%,0.1%
CCCCCCCCCCCCN(CCCCCCCCCCCC)c1nc(NCCCCCC)nc(NCCN2CCCCC2)n1 [N6^2N12D4],0.2%,0.0%
CCCCCCCCCCCCN(CCCCCCCCCCCC)c1nc(NCCCCCC)nc(NCCN2CCN(C)CC2)n1 [N6^2N12D5],0.2%,0.0%
CCCCCCCCCCCCN(CCCCCCCCCCCC)c1nc(NCCCCCC)nc(NCCCN(C)C)n1 [N6^2N12D6],0.4%,0.1%
CCCCCCCCCCCCN(CCCCCCCCCCCC)c1nc(NCCCCCC)nc(NCCN(CC)CC)n1 [N6^2N12D7],0.1%,0.3%
CCCCCCCCCCCCN(CCCCCCCCCCCC)c1nc(NCCCCCC)nc(NCCCN2CCOCC2)n1 [N6^2N12D8],0.0%,0.0%
CCCCCCCCCCCCN(CCCCCCCCCCCC)c1nc(NCCCCCC)nc(NCCCN2CCN(C)CC2)n1 [N6^2N12D9],0.0%,0.0%
CCCCCCCCCCCCN(CCCCCCCCCCCC)c1nc(NCCCCCC)nc(NCC2CCN(C)CC2)n1 [N6^2N12D10],0.4%,0.0%
